Results on two compounds are retold here after ChEMBL document CHEMBL1275588, “Role of pfmdr1 amplification and expression in induction of resistance to artemisinin derivatives in Plasmodium falciparum” (Antimicrob Agents Chemother, 2010).

Assay [1] has as its system Plasmodium falciparum. The assay is described as follows: Antimalarial activity against Plasmodium falciparum W2 harboring 2 copy number of pfmdr1 gene organism selected at 40 ng/ml compound concentration. Type of assay: functional, organism-based.
Assay [2] deals with Plasmodium falciparum. In words: Antimalarial activity against Plasmodium falciparum W2 harboring 2 copy number of pfmdr1 gene organism selected at 200 ng/ml compound concentration. Type of assay: functional, organism-based.
For assay [3], the system named is Plasmodium falciparum. In words: Antimalarial activity against Plasmodium falciparum W2 assessed as level of pfmdr1 mRNA expression organism selected on 40 ng/ml of compound by quantitative real-time RT-PCR with respect to wild type. The assay is classed as functional.
The subject of assay [4] is Plasmodium falciparum. In words: Antimalarial activity against Plasmodium falciparum W2 assessed as inhibition of [3H]hypoxanthine uptake. The assay is classed as functional, organism-based.
Assay [5] relates to Plasmodium falciparum. The assay is described as follows: Antimalarial activity against Plasmodium falciparum W2 assessed as inhibition of [3H]hypoxanthine uptake organism selected on 50 ng/mL compound concentration. The assay is classed as functional, organism-based.
For assay [6], the system named is Plasmodium falciparum. The assay is described as follows: Antimalarial activity against Plasmodium falciparum W2 assessed as inhibition of [3H]hypoxanthine uptake organism selected on 80 ng/mL compound concentration. The assay is classed as functional, organism-based.
Assay [7] concerns Plasmodium falciparum. In words: Antimalarial activity against Plasmodium falciparum D6 assessed as inhibition of [3H]hypoxanthine uptake. The assay is classed as functional, organism-based.
In assay [8] the test system is Plasmodium falciparum. In words: Antimalarial activity against Plasmodium falciparum D6 assessed as inhibition of [3H]hypoxanthine uptake organism selected on 50 ng/ml compound concentration. Type of assay: functional, organism-based.
Assay [9] has as its system Plasmodium falciparum. In words: Antimalarial activity against Plasmodium falciparum D6 assessed as inhibition of [3H]hypoxanthine uptake organism selected on 80 ng/ml compound concentration. The assay is classed as functional, organism-based.
The test system of assay [10] is Plasmodium falciparum. In words: Antimalarial activity against Plasmodium falciparum TM91C235 assessed as inhibition of [3H]hypoxanthine uptake. The assay is classed as functional, organism-based.
In assay [11] the test system is Plasmodium falciparum. In words: Antimalarial activity against Plasmodium falciparum TM91C235 assessed as inhibition of [3H]hypoxanthine uptake organism selected on 50 ng/mL compound concentration. The assay is classed as functional, organism-based.
Assay [12] has as its system Plasmodium falciparum. In words: Antimalarial activity against Plasmodium falciparum TM91C235 assessed as inhibition of [3H]hypoxanthine uptake organism selected on 80 ng/mL compound concentration. The assay is classed as functional, organism-based.
The subject of assay [13] is Plasmodium falciparum. The assay is described as follows: Antimalarial activity against Plasmodium falciparum W2 organism selected on 40 ng/ml compound concentration. Type of assay: functional, organism-based.
The test system of assay [14] is Plasmodium falciparum. In words: Antimalarial activity against Plasmodium falciparum W2 organism selected on up to 80 ng/ml compound concentration. Type of assay: functional, organism-based.
For assay [15], the system named is Plasmodium falciparum. In words: Antimalarial activity against Plasmodium falciparum TM91C235 selected on 30 ng/ml compound concentration. Type of assay: functional, organism-based.
The test system of assay [16] is Plasmodium falciparum. The assay is described as follows: Antimalarial activity against Plasmodium falciparum D6 organism selected on 30 ng/ml compound concentration. The assay is classed as functional, organism-based.
Assay [17] relates to Plasmodium falciparum. The assay is described as follows: Antimalarial activity against Plasmodium falciparum W2 harboring 1 copy number of pfmdr1 gene organism selected at 10 to 30 ng/ml compound concentration. The assay is classed as functional, organism-based.
For assay [18], the system named is Plasmodium falciparum. The assay is described as follows: Antimalarial activity against Plasmodium falciparum W2 harboring 3 copy number of pfmdr1 gene organism selected at 50 ng/ml compound concentration. The assay is classed as functional, organism-based.
Assay [19] has as its system Plasmodium falciparum. The assay is described as follows: Antimalarial activity against Plasmodium falciparum W2 harboring 3 copy number of pfmdr1 gene organism selected at 80 ng/ml compound concentration. The assay is classed as functional, organism-based.
In assay [20] the test system is Plasmodium falciparum. The assay is described as follows: Antimalarial activity against Plasmodium falciparum W2 harboring 3 copy number of pfmdr1 gene organism selected at 120 ng/ml compound concentration. The assay is classed as functional, organism-based.
The test system of assay [21] is Plasmodium falciparum. The assay is described as follows: Antimalarial activity against Plasmodium falciparum TM91C235 harboring 3 copy number of pfmdr1 gene organism selected at 80 ng/ml compound concentration. The assay is classed as functional, organism-based.
Assay [22] has as its system Plasmodium falciparum. In words: Antimalarial activity against Plasmodium falciparum TM91C235 harboring 2 copy number of pfmdr1 gene organism selected at 10 to 50 ng/ml compound concentration. Type of assay: functional, organism-based.
Assay [23] has as its system Plasmodium falciparum. The assay is described as follows: Antimalarial activity against Plasmodium falciparum D6 harboring 1 copy number of pfmdr1 gene organism selected at up to 80 ng/ml compound concentration. The assay is classed as functional, organism-based.
For assay [24], the system named is Plasmodium falciparum. In words: Antimalarial activity against Plasmodium falciparum W2 assessed as level of pfmdr1 mRNA expression organism selected on 80 ng/ml of compound by quantitative real-time RT-PCR with respect to wild type. Type of assay: functional. For orientation: In qPCR the cycle at which signal appears reflects the starting amount.
The test system of assay [25] is Plasmodium falciparum. The assay is described as follows: Antimalarial activity against Plasmodium falciparum TM91C235 assessed as level of pfmdr1 mRNA expression organism selected on 80 ng/ml of compound by quantitative real-time RT-PCR with respect to wild type. Type of assay: functional.
Assay [26] relates to Plasmodium falciparum. In words: Antimalarial activity against Plasmodium falciparum D6 assessed as level of pfmdr1 mRNA expression organism selected on 80 ng/ml of compound by quantitative real-time RT-PCR with respect to wild type. Type of assay: functional, organism-based.

Active and inactive are the calls of the source. The calls are words filed in the database; no cut-off is given here.

On to `C[C@@H]1CC[C@H]2[C@@H](C)C(=O)O[C@@H]3O[C@@]4(C)CC[C@@H]1[C@]32OO4` [ARTEMISININ], for which the outcome in the assay with Plasmodium falciparum [1] and in the assay on Plasmodium falciparum [2] was inactive. Moreover, the “fold change (FC)” value in the assay with Plasmodium falciparum [3] is 2.2.
In the case of `C[C@@H]1[C@H](OCc2ccc(C(=O)O)cc2)O[C@@H]2O[C@@]3(C)CC[C@@H]4[C@@H](C)CC[C@@H]1[C@]24OO3` [ARTELINIC ACID], the IC50 (usually the point on the concentration scale where inhibition reaches its midpoint) came to 0.00437 µM with Plasmodium falciparum [4]; 0.0233 µM in the assay with Plasmodium falciparum [5]; 0.0227 µM in the assay with Plasmodium falciparum [6]; 0.034 µM in the assay on Plasmodium falciparum [8]; 0.0236 µM with Plasmodium falciparum [9]; 0.0111 µM in the assay on Plasmodium falciparum [10]. For the same compound, the concentration for half-maximal inhibition (IC50) in the assay with Plasmodium falciparum [11] amounted to 0.0337 µM; with Plasmodium falciparum [12] it was 0.0246 µM. Besides, the IC90 (as a rule, the point of the concentration-response curve where the effect stands at 90%) stood at 0.00745 µM with Plasmodium falciparum [4]; 0.0513 µM in the assay with Plasmodium falciparum [5]; 0.0568 µM in the assay with Plasmodium falciparum [6]; 0.0218 µM in the assay on Plasmodium falciparum [7]; 0.0813 µM with Plasmodium falciparum [8]; 0.0759 µM with Plasmodium falciparum [9]. The figures for the IC90 in the assay on Plasmodium falciparum [10], in the assay on Plasmodium falciparum [11] and in the assay on Plasmodium falciparum [12] were 0.023 µM, 0.0535 µM and 0.0759 µM, respectively. For the same compound, the outcome with Plasmodium falciparum [13], in the assay on Plasmodium falciparum [14], in the assay on Plasmodium falciparum [15], in the assay on Plasmodium falciparum [16], with Plasmodium falciparum [18] and in the assay with Plasmodium falciparum [19] was inactive. In addition, the result with Plasmodium falciparum [22] and with Plasmodium falciparum [23] was inactive. In addition, the result in the assay on Plasmodium falciparum [17], in the assay on Plasmodium falciparum [20], with Plasmodium falciparum [21] and with Plasmodium falciparum [26] was Active. Besides, the figures for the “fold change (FC)” value in the assay on Plasmodium falciparum [24] and in the assay with Plasmodium falciparum [25] were 3 and 2.1, respectively.
